# Bridge positions count the residues as written; N and C are the ends. Square brackets hold non-standard residues; d marks the D form. Peptide text beside a SMILES is read from it. R5 = C=CCCC[C@@](C)(N)C(=O)O; S5 = C=CCCC[C@](C)(N)C(=O)O
# Experiments:
# [1] = Proteolytic stability assay, chymotrypsin; format: in vitro ADME; conditions: chymotrypsin (isolated protease); 10 μl peptide 0.29 mM in 990 μl 100 mM Tris-HCl pH 8.0, 10 mM CaCl2; 10 μl chymotrypsin 50 μg/ml; 25°C; LC-MS of intact peptide, exponential decay fit; 3 experiments
# Procedure: This is an important parameter to assess for the development of peptide therapeutics. Peptides 4bb, 4ca, and 4a, and the unstapled analog peptide 4, as well as both SAH-RSVFBD isomers, were treated with chymotrypsin or trypsin, and the samples were analyzed by LC/MS to quantify the reaction products over time. […] In comparison, both SAH-RSVFBD isomers were more susceptible to proteolytic degradation, with half-lives of approximately 7 h and 5 min against chymotrypsin and trypsin, respectively.
# In vitro proteolytic degradation was measured via LC-MS using an Agilent Infinity 1280 UHPLC system coupled to an Agilent quadrupole time of flight (QTOF) 6530 instrument with an Agilent Jet Stream electrospray ionization (AJS ESI) source (all from Agilent Technologies, Waldbronn, Germany). Five microliters of digested sample was injected onto a C18 column (Zorbax Eclipse Plus RRHD, 1.8 μm, 2.1 by 100 mm; Agilent Technologies, Waldbronn, Germany) equilibrated with solvent A (5% acetonitrile, 0.2% formic acid) and eluted with a flow rate of 0.4 ml/min over a 5 to 95% gradient of solvent B (95% acetonitrile, 0.2% formic acid) in 5 min, followed by 1.5 min at 95% and 0.5 min posttime. The AJS ESI source was operated with a capillary voltage of 4,000 V and a nozzle voltage of 600 V with a drying gas temperature of 325°C and flow rate of 10 liters/min, nebulizing gas pressure of 20 lb/in^2, and a sheath gas temperature of 300°C and flow rate of 11 liters/min. Mass spectra were acquired in the positive-ion mode from 100 to 3,200 m/z at a rate of 1 scan per second in extended dynamic range (2 GHz) mode. The fragmentor, skimmer, and octopole RF voltages were set to 200, 60, and 750 V, respectively. Data were acquired and analyzed with the Agilent MassHunter Workstation (version B.05).
# Peptide digestion was performed as follows: 10 μl of peptide at 0.29 mM in 50:50 acetonitrile-water was dissolved in 990 μl 100 mM Tris-HCl (pH 8.0) with 10 mM CaCl2. Following measurement of the undigested (t0) sample, 10 μl of chymotrypsin at 50 μg/ml in 100 mM Tris-HCl (pH 8.0) with 10 mM CaCl2 was added, and the sample was vortexed and placed immediately in the autosampler, set to 25°C. The level of intact peptide was quantified by serial injection over time. Integration of the intact peptide compound chromatogram was performed using the Agilent Molecular Feature Extraction (MFE) algorithm. The value of the fit at t = 0 min was used to calculate the percentage of the intact peptide at each point as follows: Percent intact (t) = [Vol (t)/Volt0] × 100, where Vol is the total volume calculated using Find Compounds by Molecular Feature and Volt0 is the value of the fit at time t = 0. A plot of the intact peptide MFE peak area over time gave an exponential decay curve, from which the half-life was determined using MatLab […].
# HEp-2 cells = experiment: Cytotoxicity, CellTiter-Glo Luminescent cell viability assay; format: cell-based; conditions: serial dilutions of peptide, 24 h, duplicates
# Procedure: Viral replication was quantified by measuring the mCherry fluorescence at 48 h p.i. and normalized based on the fluorescence of infected and untreated cells. (B) Cytotoxicity assay. HEp-2 cells were incubated in the presence of serial dilutions of peptides, and cell survival was quantified using the CellTiter-Glo Luminescent cell viability assay 24 h after the addition of the peptides. The signal was normalized based on the luminescence obtained for untreated cells. Error bars are standard deviations from duplicates.
# A549 (ATCC CCL-185) cells were maintained in Dulbecco's modified Eagle medium (DMEM) supplemented with 10% fetal calf serum (FCS). HEp-2 (ATCC CCL-23) cells were maintained in Eagle's miminum essential medium (EMEM) supplemented with 10% FCS, 2 mM L-glutamine, and penicillin-streptomycin solution. The cells were grown in an incubator at 37°C in 5% CO2. Cytotoxicity assays were done with the CellTiter-Glo Luminescent cell viability assay (Promega).
# [2] = Histological analysis of lungs; format: in vivo, BALB/c mice
# Procedure: In order to track the infection, we used the recombinant virus rHRSV-Luc, which was previously shown to allow in vivo imaging studies of RSV replication and spreading and constitutes a powerful and convenient tool for the evaluation of drug efficiency against RSV in the mouse model ([24]). […] Mice were anesthetized at day 3 p.i. and observed alive using the IVIS imaging system 5 min after i.n. injection of D-luciferin. […] At day 3 p.i., a second dose of the peptide was administered to the mice, and the bioluminescence was measured at day 5 p.i. […] At day 7 p.i., a time corresponding to the end of the infection in mice, the animals were sacrificed and the lungs were collected in order to perform a histological analysis. […]
# Mice were sacrificed at day 7 p.i., the chest cavity was opened, and the lungs were perfused intratracheally with 4% paraformaldehyde (PFA) in PBS. […] The lungs were embedded in paraffin, and 5-μm sections were cut, stained with hematoxylin-eosin-saffron (HES), and evaluated microscopically. Qualitative histological changes were described and when applicable were scored semiquantitatively using a three-point scale from 0 to 2 (0, none; 1, mild; 2, marked), focusing on histological characterization of lesions (interstitial pneumonia, respiratory epithelial cell apoptosis, and hyperplasia) and inflammation.
structure (smiles),measurement,setting,value
"CC[C@H](C)[C@@H]1NC(=O)[C@H](Cc2ccccc2)NC(=O)[C@@](C)(NC(=O)[C@H](CC(C)C)NC(=O)[C@H](CO)NC(=O)[C@]2(C)CCCC=CCCC[C@@](C)(NC(=O)[C@H](CCC(=O)O)NC(C)=O)C(=O)N[C@@H]([C@@H](C)CC)C(=O)N[C@@H](CC(N)=O)C(=O)N2)CCCC=CCCC[C@@](C)(C(=O)N[C@@H](CO)C(=O)N[C@@H](CC(=O)O)C(=O)N[C@@H](CCC(=O)O)C(=O)N[C@@H](CC(C)C)C(=O)N[C@@H](CC(C)C)C(=O)N[C@@H](Cc2c[nH]cn2)C(=O)N[C@@H](CC(N)=O)C(=O)N[C@H](C(N)=O)C(C)C)NC(=O)[C@H](CCCNC(=N)N)NC1=O [Peptide 4ca] (Ac-E[R5]IN[S5]SL[S5]FIR[S5]SDELLHNV-NH2; staple 2-5, 8-12)",half-life at 2.9 µM,[1],180 h
same,cellular toxicity,HEp-2 cells,no cellular toxicity was detected
same,histological changes in lung parenchyma (toxicity),"[2]; 4ca-inoculated versus mock-inoculated noninfected mice, i.n. 50 μl at 50 μM, day 7, HES staining",no histological changes
same,interstitial pneumonia after RSV infection,"[2]; RSV-infected mice treated i.n. with 4ca, day 7 p.i., HES staining",no interstitial pneumonia was observed

# Source: publication PMC5365662, “A Short Double-Stapled Peptide Inhibits Respiratory Syncytial Virus Entry and Spreading” (Antimicrobial Agents and Chemotherapy, 2017)
